Measured values taken from patent publication US20260356804A1, “SODIUM CHANNEL BLOCKING COMPOUNDS, DERIVATIVES THEREOF, AND METHODS OF THEIR USE” (LATIGO BIOTHERAPEUTICS, INC., priority 2022, published 2026).
Counter-ions that a name gives are not always drawn. Like-named read-outs stand apart in the source and are kept apart here.

Biological target: T1, human Nav1.8/b3 (Homo sapiens, UniProt Q9Y5Y9)
T1 construct: expressed in transfected cells; host or cells: CHO
Experiment: Compound Profiling Human NaV1.8/β3 Cell Line—SyncroPatch384PE Assay (automated patch clamp, stably transfected CHO cells)
Assay type: cell-based
Conditions: Nav1.8/b3 CHO cells

[1] = P1 (IC50, resting state block), P1 measurement, resting state block, holding potential −120 mV, first set of compounds
[2] = P2 (IC50, inactivated state block), P2 measurement, inactivated state block, inactivation step −35 mV 10 sec, first set of compounds
[3] = P1 (IC50, resting state block), P1 measurement, resting state block, holding potential −120 mV, fourth set of compounds
[4] = P2 (IC50, inactivated state block), P2 measurement, inactivated state block, inactivation step −35 mV 10 sec, fourth set of compounds
[5] = P1 (IC50, resting state block), P1 measurement, resting state block, holding potential −120 mV, third set of compounds
[6] = P2 (IC50, inactivated state block), P2 measurement, inactivated state block, inactivation step −35 mV 10 sec, third set of compounds
[7] = P1 measurement, resting state block, holding potential −120 mV, third set of compounds, read-out: P1 (IC50, resting state block)
[8] = P2 measurement, inactivated state block, inactivation step −35 mV 10 sec, third set of compounds, read-out: P2 (IC50, inactivated state block)
[9] = P1 (IC50, resting state block), P1 measurement, resting state block, holding potential −120 mV, second set of compounds
[10] = P2 (IC50, inactivated state block), P2 measurement, inactivated state block, inactivation step −35 mV 10 sec, second set of compounds

T1 sequence (Q9Y5Y9 whole entry): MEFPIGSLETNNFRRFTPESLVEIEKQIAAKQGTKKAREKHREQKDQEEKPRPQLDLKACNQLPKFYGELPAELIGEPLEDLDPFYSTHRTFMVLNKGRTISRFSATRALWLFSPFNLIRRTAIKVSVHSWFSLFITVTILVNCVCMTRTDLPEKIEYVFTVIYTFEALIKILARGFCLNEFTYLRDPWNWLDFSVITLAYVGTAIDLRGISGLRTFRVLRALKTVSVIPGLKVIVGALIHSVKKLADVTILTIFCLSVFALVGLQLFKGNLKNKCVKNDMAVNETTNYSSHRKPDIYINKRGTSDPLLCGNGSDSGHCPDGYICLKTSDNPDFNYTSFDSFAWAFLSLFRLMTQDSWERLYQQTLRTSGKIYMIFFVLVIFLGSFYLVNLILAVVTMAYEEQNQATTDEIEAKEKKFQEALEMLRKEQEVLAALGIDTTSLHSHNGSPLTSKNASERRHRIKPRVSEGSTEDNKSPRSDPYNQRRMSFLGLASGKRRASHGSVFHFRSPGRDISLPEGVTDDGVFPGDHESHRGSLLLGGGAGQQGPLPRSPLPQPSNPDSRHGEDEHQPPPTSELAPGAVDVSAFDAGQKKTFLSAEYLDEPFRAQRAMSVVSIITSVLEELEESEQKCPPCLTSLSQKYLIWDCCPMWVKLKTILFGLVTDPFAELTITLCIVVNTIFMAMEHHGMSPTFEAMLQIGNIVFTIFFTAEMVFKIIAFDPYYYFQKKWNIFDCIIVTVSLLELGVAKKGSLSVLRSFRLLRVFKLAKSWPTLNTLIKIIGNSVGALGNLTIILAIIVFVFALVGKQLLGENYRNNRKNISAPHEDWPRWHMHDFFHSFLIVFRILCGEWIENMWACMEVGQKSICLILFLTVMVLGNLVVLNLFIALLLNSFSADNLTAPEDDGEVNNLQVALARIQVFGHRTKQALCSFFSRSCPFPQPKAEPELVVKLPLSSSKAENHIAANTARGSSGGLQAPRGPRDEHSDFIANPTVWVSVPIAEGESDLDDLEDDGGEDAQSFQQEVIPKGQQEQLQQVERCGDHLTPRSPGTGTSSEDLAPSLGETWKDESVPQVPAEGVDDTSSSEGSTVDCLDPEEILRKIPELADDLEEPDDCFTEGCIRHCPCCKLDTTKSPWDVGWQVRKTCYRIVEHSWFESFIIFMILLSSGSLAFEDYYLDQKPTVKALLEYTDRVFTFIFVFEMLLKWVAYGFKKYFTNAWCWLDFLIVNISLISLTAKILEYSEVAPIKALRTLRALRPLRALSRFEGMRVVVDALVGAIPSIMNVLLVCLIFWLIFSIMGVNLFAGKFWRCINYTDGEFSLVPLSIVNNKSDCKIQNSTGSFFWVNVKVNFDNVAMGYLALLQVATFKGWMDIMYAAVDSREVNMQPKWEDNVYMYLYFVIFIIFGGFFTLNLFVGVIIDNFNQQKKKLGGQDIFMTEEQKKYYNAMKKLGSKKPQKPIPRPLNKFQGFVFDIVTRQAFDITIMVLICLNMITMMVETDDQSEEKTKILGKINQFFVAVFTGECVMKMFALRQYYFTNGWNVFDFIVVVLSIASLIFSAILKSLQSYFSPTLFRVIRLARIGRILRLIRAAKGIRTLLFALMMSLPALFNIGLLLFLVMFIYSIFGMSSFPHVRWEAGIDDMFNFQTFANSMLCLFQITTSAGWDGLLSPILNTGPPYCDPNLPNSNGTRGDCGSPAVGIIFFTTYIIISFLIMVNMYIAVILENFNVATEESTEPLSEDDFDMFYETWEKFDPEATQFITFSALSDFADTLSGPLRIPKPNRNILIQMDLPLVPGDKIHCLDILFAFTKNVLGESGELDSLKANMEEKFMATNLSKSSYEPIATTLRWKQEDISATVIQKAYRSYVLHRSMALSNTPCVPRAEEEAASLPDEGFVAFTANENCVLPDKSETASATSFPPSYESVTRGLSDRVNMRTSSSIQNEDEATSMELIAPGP
T1 sequence (Q9NY72 23-215 partner): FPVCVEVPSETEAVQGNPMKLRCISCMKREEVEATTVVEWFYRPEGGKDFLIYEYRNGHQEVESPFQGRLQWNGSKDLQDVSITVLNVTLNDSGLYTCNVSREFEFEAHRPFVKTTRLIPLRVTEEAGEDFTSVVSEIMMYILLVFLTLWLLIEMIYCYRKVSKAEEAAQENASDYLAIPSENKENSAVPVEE

Compound: Cc1nc(F)ccc1Oc1cc(C(F)(F)F)c(Cl)cc1C(=O)Nc1ccc(F)c([S@](C)(=N)=O)c1 [Example 71A]
- IC50 [1]: < 5 nM
- IC50 [2]: < 5 nM

Compound: Cc1nc(F)ccc1Oc1nnc(C(F)(F)F)c(C)c1C(=O)Nc1cccc([S@@](C)(=O)=NC(=O)CN)c1 [Example 24D, (R)-3-((6-fluoro-2-methylpyridin-3-yl)oxy)-N-(3-(N-glycyl-S-methylsulfonimidoyl)phenyl)-5-methyl-6-(trifluoromethyl)pyridazine-4-carboxamide]
- IC50 [3]: 5 to 50 nM
- IC50 [4]: 5 to 50 nM

Compound: COc1cc(C#N)ccc1Oc1cc(C(F)(F)F)nnc1C(=O)Nc1cccc(S(C)(=N)=O)c1 (stereo not drawn) [Example 34C, 4-(4-cyano-2-methoxyphenoxy)-N-(3-(S-methylsulfonimidoyl)phenyl)-6-(trifluoromethyl)pyridazine-3-carboxamide]
- IC50 [5]: > 200 nM
- IC50 [6]: > 200 nM

Compound: Cc1nc(F)ccc1Oc1ncc(C(F)(F)F)c(C)c1C(=O)Nc1cccc([S@@](C)(=O)=NC(=O)[C@@H]2CCOC2)c1 [Example 10D, 2-((6-fluoro-2-methylpyridin-3-yl)oxy)-4-methyl-N-(3-((R)—S-methyl-N—((R)-tetrahydrofuran-3-carbonyl)sulfonimidoyl)phenyl)-5-(trifluoromethyl)nicotinamide]
- IC50 [3]: < 5 nM
- IC50 [4]: < 5 nM

Compound: Cc1nc(F)ccc1Oc1cc(C(F)(F)F)c(Cl)cc1C(=O)Nc1ccc(C(N)=O)nc1 [Example 64A]
- IC50 [1]: 5 to 50 nM
- IC50 [2]: 5 to 50 nM

Compound: Cc1nc(F)ccc1Oc1nc(C(F)(F)F)c(Cl)c(C)c1C(=O)Nc1ccnc([S@](C)(=N)=O)c1 [Example 100C]
- IC50 [5]: 5 to 50 nM
- IC50 [6]: 5 to 50 nM

Compound: Cc1nc(F)ccc1Oc1nc(C2CC2)c(C(F)(F)F)c(C)c1C(=O)Nc1cccc([S@@](C)(=N)=O)c1 [Example 107C]
- IC50 [7]: < 5 nM
- IC50 [8]: < 5 nM

Compound: Cc1nc(F)ccc1Oc1cc(C(F)(F)F)c(Cl)cc1C(=O)Nc1cccc([S@@](C)(=O)=NCCN)c1 [Example 14A, (R)—N-(3-(N-(2-aminoethyl)-S-methylsulfonimidoyl)phenyl)-5-chloro-2-((6-fluoro-2-methylpyridin-3-yl)oxy)-4-(trifluoromethyl)benzamide]
- IC50 [1]: < 5 nM
- IC50 [2]: < 5 nM

Compound: C[S@@](=N)(=O)c1cc(NC(=O)c2c(F)cc(C(F)(F)F)cc2Oc2ccc(OC(F)(F)F)cc2)ccn1 [Example 44A]
- IC50 [1]: < 5 nM
- IC50 [2]: < 5 nM

Compound: COc1c(Oc2cc(C(F)(F)F)nnc2C(=O)Nc2cccc(S(C)(=N)=O)c2)ccc(F)c1F (stereo not drawn) [Example 31C, 4-(3,4-difluoro-2-methoxyphenoxy)-N-(3-(S-methylsulfonimidoyl)phenyl)-6-(trifluoromethyl)pyridazine-3-carboxamide]
- IC50 [5]: 100 to 200 nM
- IC50 [6]: 100 to 200 nM

Compound: COc1cc(C#N)ccc1Oc1ncc(-c2ccc(C(F)F)cc2)c(C)c1C(=O)Nc1ccnc([S@](C)(=N)=O)c1 [Example 17C, (R)-2-(4-cyano-2-methoxyphenoxy)-5-(4-(difluoromethyl)phenyl)-4-methyl-N-(2-(S-methylsulfonimidoyl)pyridin-4-yl)nicotinamide]
- IC50 [5]: > 200 nM
- IC50 [6]: > 200 nM

Compound: COCC(=O)N=[S@](C)(=O)c1cccc(NC(=O)c2c(Oc3ccc(F)nc3C)ncc(C(F)(F)F)c2C)c1 [Example 8D, (R)-2-((6-fluoro-2-methylpyridin-3-yl)oxy)-N-(3-(N-(2-methoxyacetyl)-S-methylsulfonimidoyl)phenyl)-4-methyl-5-(trifluoromethyl)nicotinamide]
- IC50 [3]: < 5 nM
- IC50 [4]: < 5 nM

Compound: Cc1nc(F)ccc1Oc1ncc(C(F)F)c(C)c1C(=O)Nc1ccnc(S(C)(=N)=O)c1 (stereo not drawn) [Example 48C, 5-(difluoromethyl)-2-((6-fluoro-2-methylpyridin-3-yl)oxy)-4-methyl-N-(2-(S-methylsulfonimidoyl)pyridin-4-yl)nicotinamide]
- IC50 [5]: > 200 nM
- IC50 [6]: > 200 nM

Compound: CNCCN=[S@](C)(=O)c1cccc(NC(=O)c2c(Oc3ccc(F)nc3C)ncc(C(F)(F)F)c2C)c1 [Example 109C]
- IC50 [7]: < 5 nM
- IC50 [8]: < 5 nM

Compound: Cc1nc(F)ccc1Oc1cc(C(F)(F)F)ccc1C(=O)Nc1cccc([S@@](C)(=O)=NC(=O)CN)c1 [Example 14B, (R)-2-((6-fluoro-2-methylpyridin-3-yl)oxy)-N-(3-(N-glycyl-S-methylsulfonimidoyl)phenyl)-4-(trifluoromethyl)benzamide]
- IC50 [9]: 5 to 50 nM
- IC50 [10]: 5 to 50 nM

Compound: Cc1nc(F)ccc1Oc1cc(C(F)(F)F)c(Cl)c(C)c1C(=O)Nc1cccc(C(N)=O)c1 [Example 61A]
- IC50 [1]: < 5 nM
- IC50 [2]: < 5 nM

Compound: Cc1nc(F)ccc1Oc1ncc(C(F)(F)F)c(C)c1C(=O)Nc1cccc(S(C)(=O)=O)c1 [Example 123C]
- IC50 [5]: < 5 nM
- IC50 [6]: < 5 nM

Compound: C[S@@](=N)(=O)c1cccc(NC(=O)c2c(Oc3ccc(OC(F)(F)F)cc3)cc(C(F)(F)F)c(Cl)c2Oc2ccc(OC(F)(F)F)cc2)c1 [Example 46A]
- IC50 [1]: 100 to 200 nM
- IC50 [2]: 100 to 200 nM

Compound: Cc1nc(F)ccc1Oc1nc(C2CC2)c(C(F)(F)F)c(C)c1C(=O)Nc1ccnc([S@@](C)(=N)=O)c1 [Example 105C]
- IC50 [5]: < 5 nM
- IC50 [6]: < 5 nM

Compound: Cc1nc(F)ccc1Oc1ncc(C(F)F)c(C)c1C(=O)Nc1ccnc([S@@](C)(=N)=O)c1 [Example 114C]
- IC50 [5]: > 200 nM
- IC50 [6]: > 200 nM

Compound: Cc1nc(F)ccc1Oc1ccc(C(F)(F)F)c(F)c1C(=O)Nc1cccc([S@@](C)(=O)=NC(=O)CN)c1 [Example 16B, (R)-2-fluoro-6-((6-fluoro-2-methylpyridin-3-yl)oxy)-N-(3-(N-glycyl-S-methylsulfonimidoyl)phenyl)-3-(trifluoromethyl)benzamide]
- IC50 [9]: < 5 nM
- IC50 [10]: < 5 nM

Compound: Cc1nc(F)ccc1Oc1cc(C(F)(F)F)ccc1C(=O)Nc1cccc([S@](C)(=N)=O)c1 [Example 2A, (R)-2-((6-fluoro-2-methylpyridin-3-yl)oxy)-N-(3-(S-methylsulfonimidoyl)phenyl)-4-(trifluoromethyl)benzamide]
- IC50 [1]: 5 to 50 nM
- IC50 [2]: 5 to 50 nM

Compound: Cc1nc(F)ccc1Oc1cc(C(F)(F)F)c(Cl)cc1C(=O)Nc1cccc([S@@](C)(=O)=NC(=O)CO)c1 [Example 2B, (R)-5-chloro-2-((6-fluoro-2-methylpyridin-3-yl)oxy)-N-(3-(N-(2-hydroxyacetyl)-S-methylsulfonimidoyl)phenyl)-4-(trifluoromethyl)benzamide]
- IC50 [9]: < 5 nM
- IC50 [10]: < 5 nM

Compound: Cc1nc(F)ccc1Oc1ncc(C(F)(F)F)c(C)c1C(=O)Nc1ccnc([S@@](C)(=N)=O)c1 (single isomer, unassigned) [Example 10C]
- IC50 [5]: 5 to 50 nM
- IC50 [6]: 5 to 50 nM

Compound: CNCC(=O)N=[S@](C)(=O)c1cccc(NC(=O)c2c(Oc3ccc(F)nc3C)ncc(C(F)(F)F)c2C)c1 [Example 1D, (R)-2-((6-fluoro-2-methylpyridin-3-yl)oxy)-4-methyl-N-(3-(S-methyl-N-(methylglycyl)sulfonimidoyl)phenyl)-5-(trifluoromethyl)nicotinamide]
- IC50 [3]: < 5 nM
- IC50 [4]: < 5 nM

Compound: Cc1nc(F)ccc1Oc1cc(C2CC2)c(C(F)(F)F)c(C)c1C(=O)Nc1cccc([S@@](C)(=N)=O)c1 [Example 42A]
- IC50 [1]: < 5 nM
- IC50 [2]: < 5 nM

Compound: COc1cc(C#N)ccc1Oc1ncc(-c2ccc(C(F)F)cc2)c(C)c1C(=O)Nc1ccnc([S@@](C)(=N)=O)c1 [Example 16C, (S)-2-(4-cyano-2-methoxyphenoxy)-5-(4-(difluoromethyl)phenyl)-4-methyl-N-(2-(S-methylsulfonimidoyl)pyridin-4-yl)nicotinamide]
- IC50 [5]: > 200 nM
- IC50 [6]: > 200 nM

Compound: Cc1nc(F)ccc1Oc1ccc(C(F)(F)F)c(F)c1C(=O)Nc1cccc([S@](C)(=N)=O)c1 [Example 4A, (R)-2-fluoro-6-((6-fluoro-2-methylpyridin-3-yl)oxy)-N-(3-(S-methylsulfonimidoyl)phenyl)-3-(trifluoromethyl)benzamide]
- IC50 [1]: < 5 nM
- IC50 [2]: < 5 nM

Compound: Cc1nc(F)ccc1Oc1ncc(C(F)(F)F)c(C)c1C(=O)Nc1cccc([S@@](C)(=O)=NC(=O)[C@H]2CCCN2)c1 [Example 23D, N-(3-((R)—N-(D-prolyl)-S-methylsulfonimidoyl)phenyl)-2-((6-fluoro-2-methylpyridin-3-yl)oxy)-4-methyl-5-(trifluoromethyl)nicotinamide formate]
- IC50 [3]: < 5 nM
- IC50 [4]: < 5 nM

Compound: Cc1nc(F)ccc1Oc1nc(C(F)(F)F)c(Cl)c(C)c1C(=O)Nc1ccc(F)c([S@@](C)(=N)=O)c1 [Example 94C]
- IC50 [5]: 5 to 50 nM
- IC50 [6]: 5 to 50 nM

Compound: C[S@@](=N)(=O)c1cccc(NC(=O)c2c(Oc3ccc(OC(F)(F)F)cc3)cc(C(F)(F)F)c(Cl)c2F)c1 [Example 50A]
- IC50 [1]: < 5 nM
- IC50 [2]: < 5 nM

Compound: C[S@@](=N)(=O)c1cc(NC(=O)c2c(Oc3ccc(OC(F)(F)F)cc3)cc(C(F)(F)F)c(Cl)c2F)ccn1 [Example 45A]
- IC50 [1]: < 5 nM
- IC50 [2]: < 5 nM

Compound: Cc1nc(F)ccc1Oc1nc(C(F)(F)F)c(Br)c(C)c1C(=O)Nc1cccc([S@@](C)(=O)=NCCN)c1 [Example 96C]
- IC50 [5]: < 5 nM
- IC50 [6]: < 5 nM
